Patent US20200345805A1, “COMPOSITIONS AND METHODS USEABLE FOR TREATMENT OF DRY EYE” (priority 2019, published 2020)
Non-standard residues stand in square brackets, D forms with d. Residues, ends and D or L forms follow the SMILES beside them. Cya = N[C@@H](CS(=O)(=O)O)C(=O)O

System: Integrin αMβ2
Test: Expression of integrin αMβ2 in ischemic retinopathy of prematurity (ROP) mice after Risuteganib treatment
Format: in vivo
Settings: FIG. 1
Excerpt: FIG. 1 is a graphic showing expression of integrin αMβ2 in ischemic retinopathy of prematurity (ROP) mice after Risuteganib treatment. Risuteganib is a small peptide that acts as an integrin inhibitor. Risuteganib targets multiple integrin subunits, including Integrin αMβ2 which is sometimes referred to as the “compliment 3 receptor” and is actively involved in inflammatory pathways and, in particular, the compliment 3 pathway. […] By causing such inhibition of Integrin αMβ2 Risuteganib may interfere with leucocyte adhesion and trans-endothelial migration, thereby resulting in decreased inflammation and improvement in the symptoms of Dry Eye.

C[C@@H](O)[C@H](NC(=O)[C@H](CS(=O)(=O)O)NC(=O)CNC(=O)[C@H](CCCNC(=N)N)NC(=O)CN)C(=O)N1CCC[C@H]1C(=O)O [Risuteganib, Glycyl-L-arginylglycyl-3-sulfo-L-alanyl-L-threonyl-L-proline] (H-GRG[Cya]TP-OH)
expression of Integrin αMβ2: decreases expression
